# Structures can show the parent of a compound that is named as a salt.
# Tests used:
# [1] = system: NCI-H292 lung cancer cells; test: FDA drug screening, complete media vs cholesterol-free media with simvastatin (TABLE 2); format: cell-based, human; conditions: for Cholesterol-free media + simvastatin (0.04 μM) / Complete Media: NCI-H292 cells
# [2] = system: NCI-H292 lung cancer cells; test: FDA drug screening, complete media vs cholesterol-free media without statin (TABLE 1); format: cell-based, human
# [3] = FDA library drug in cholesterol-free media with simvastatin 0.04 μM
# [4] = FDA library drug in complete media
# [5] = complete media vs cholesterol-free media + simvastatin (0.04 μM), >0 enhanced anti-cancer activity, about 0 neutral, <0 antagonist
# [6] = Complete minus Cholesterol-free, greater than 0 enhanced anti-cancer activity, about 0 neutral, below 0 antagonist
# [7] = NCI-H292 cells, FDA drug library screen, cholesterol-free media without statin
# [8] = NCI-H292 cells, FDA drug library screen, complete media
# [9] = FDA drug library screen, cholesterol-free media with simvastatin 0.04 μM
# [10] = FDA drug library screen, complete media
# [11] = complete media minus cholesterol-free media + simvastatin, >0 enhanced anti-cancer activity, about 0 neutral, <0 antagonist
# [12] = NCI-H292 cells, cholesterol-free media without statin, FDA drug library screen
# [13] = NCI-H292 cells, complete media, FDA drug library screen
# [14] = complete vs cholesterol-free media, >0 enhanced anti-cancer activity, about 0 neutral, <0 antagonist
# [15] = NCI-H292 cells, cholesterol-free media without statin
# [16] = complete vs cholesterol-free media, greater than 0 enhanced anti-cancer activity, about 0 neutral, below 0 antagonists
# [17] = Complete minus Cholesterol-free, >0 enhanced anti-cancer activity, about 0 neutral, <0 antagonist
# [18] = Complete minus Cholesterol-free, greater than 0 enhanced anti-cancer activity, about 0 neutral, below 0 antagonists
# [19] = NCI-H292 cells in cholesterol-free media without statin
# [20] = NCI-H292 cells in complete media
Structure (SMILES),"Cholesterol-free media + simvastatin (0.04 μM) [1, 3]","Complete Media [1, 4]","Difference [1, 5]","Cholesterol-free media + simvastatin (0.04 μM) [1, 9]","Complete Media [1, 10]","Cholesterol-free [2, 12]","Complete [2, 13]",also measured
C#C[C@]1(OC(C)=O)CC[C@H]2[C@@H]3CCC4=CC(=O)CC[C@@H]4[C@H]3CC[C@@]21C [Norethindrone acetate],1.695,0.9691,−0.73,–,–,–,–,"Difference [2, 6]: −0.12; Cholesterol-free [2, 7]: 1.033; Complete [2, 8]: 0.9116"
C#C[C@]1(O)CC[C@H]2[C@@H]3CCC4=CC(=O)CC[C@@H]4[C@H]3CC[C@@]21C [Norethindrone],–,–,–,0.8746,1.458,1.186,1.412,"Difference [1, 11]: 0.58; Difference [2, 14]: 0.23"
CCn1cc(C(=O)O)c(=O)c2cc(F)c(N3CCNCC3)cc21 [Norfloxacin],1.696,1.396,−0.30,–,–,1.043,1.123,"Difference [2, 14]: 0.08"
C#CC1(O)CC[C@H]2[C@@H]3CCC4=CC(=O)CC[C@@H]4[C@H]3CC[C@@]21CC (some centres unmarked) [Norgestrel],1.456,1.004,−0.45,–,–,–,–,"Cholesterol-free [2, 15]: 1.349; Complete ([2]; NCI-H292 cells, complete media): 1.022; Difference [2, 16]: −0.33"
CNCCC=C1c2ccccc2CCc2ccccc21 [Nortriptyline (hydrochloride)],–,–,−0.25,–,–,–,–,"Cholesterol-free media + simvastatin (0.04 μM) ([1]; drug in cholesterol-free media with simvastatin 0.04 μM): 1.16; Complete Media ([1]; drug in complete media): 0.9078; Cholesterol-free [2, 15]: 1.336; Complete ([2]; NCI-H292 cells, complete media): 1.01; Difference [2, 16]: −0.33"
CC(C)C[C@@H](N)C(=O)N[C@H]1C(=O)N[C@@H](CC(N)=O)C(=O)N[C@H]2C(=O)N[C@H]3C(=O)N[C@H](C(=O)N[C@H](C(=O)O)c4cc(O)cc(O)c4-c4cc3ccc4O)[C@H](O)c3ccc(c(Cl)c3)Oc3cc2cc(c3O[C@@H]2O[C@H](CO)[C@@H](O)[C@H](O)[C@H]2O[C@H]2C[C@](C)(N)[C@H](O)[C@H](C)O2)Oc2ccc(cc2Cl)[C@H]1O.Cl [Norvancomycin (hydrochloride)],1.335,0.8954,–,–,–,–,–,"Difference ([1]; complete media vs cholesterol-free media + simvastatin (0.04 μM), […]): −0.44; Difference ([2]; Complete minus Cholesterol-free, […]): −0.07; Cholesterol-free [2, 7]: 1.244"
COc1ccc2c(c1OC)C(=O)O[C@@H]2[C@H]1c2c(cc3c(c2OC)OCO3)CCN1C [Noscapine],–,–,–,0.7586,1.21,–,–,"Difference [1, 11]: 0.45; Difference [2, 17]: −0.20; Cholesterol-free [2, 15]: 1.288; Complete ([2]; NCI-H292 cells, complete media): 1.088"
CO[C@@H]1[C@@H](OC(N)=O)[C@@H](O)[C@H](Oc2ccc3c(O)c(NC(=O)c4ccc(O)c(CC=C(C)C)c4)c(=O)oc3c2C)OC1(C)C [Novobiocin (Sodium)],–,–,−0.08,1.139,1.056,–,–,"Difference [2, 6]: −0.12; Cholesterol-free [2, 7]: 1.193; Complete [2, 8]: 1.072"
CC(CCc1ccccc1)NC(C)C(O)c1ccc(O)cc1 (centres unmarked) [Nylidrin (hydrochloride)],–,–,–,0.6926,0.8576,–,–,"Difference [1, 11]: 0.17; Difference [2, 18]: −0.53; Cholesterol-free [2, 19]: 1.455; Complete [2, 20]: 0.9273"
CC[C@H]1[C@@H](O)[C@@H]2[C@H](CC[C@]3(C)[C@@H]([C@H](C)CCC(=O)O)CC[C@@H]23)[C@@]2(C)CC[C@@H](O)C[C@@H]12 [Obeticholic acid],–,–,−0.13,1.258,1.13,0.5907,0.9124,"Difference [2, 14]: 0.32"
CCCCCCCCN=c1ccn(CCCCCCCCCCn2ccc(=NCCCCCCCC)cc2)cc1 [Octenidine (dihydrochloride)],–,–,–,–,–,0.00456,0.01483,"Cholesterol-free media + simvastatin (0.04 μM) ([1]; cholesterol-free media with simvastatin 0.04 μM, FDA drug library screen (TABLE 2)): −0.0001133; Complete Media ([1]; complete media, FDA drug library screen (TABLE 2)): −0.0003925; Difference ([1]; complete media minus cholesterol-free media + simvastatin (0.04 μM), >0 enhanced anti-cancer activity, about 0 neutral, <0 antagonist): 0.00; Difference [2, 17]: 0.01"
CCCCC(CC)COC(=O)c1ccccc1O (centres unmarked) [Octisalate],–,–,−0.11,0.992,0.8834,2.188,2.15,"Difference [2, 17]: −0.04"
CCCCC(CC)COC(=O)C(C#N)=C(c1ccccc1)c1ccccc1 (centres unmarked) [Octocrylene],–,–,−0.15,1.183,1.029,–,–,"Difference [2, 18]: −0.58; Cholesterol-free [2, 19]: 1.541; Complete [2, 20]: 0.9621"
